This is an account of results in patent US20090088403A1, “A3 ADENOSINE RECEPTORS AS TARGETS FOR THE MODULATION OF CENTRAL SEROTONERGIC SIGNALING” (priority 2007, published 2009).

One may read the Km as the substrate concentration at which the rate is half of its maximum.

Type in all cases: cell-based
One test has as its system GABA transport activity. The test is described as follows: [3H]GABA uptake in mouse striatal and midbrain synaptosomes. To be noted: 10 min.
A further test concerns SERT. Briefly: [3H]5-HT transport assay in mouse brain synaptosomes. To be noted: for effect on IB-MECA (10 nM) stimulated 5-HT uptake: inhibitor 10 min before IB-MECA, MRS1191 1 μM, DT-2 1.0 μM, H8 0.1 μM, SB203580 1.0 μM.
Another test concerns dopamine transporter. Briefly: [3H]DA uptake in mouse striatal and midbrain synaptosomes. Conditions: 10 min.
The mark [1] stands for this setting: midbrain synaptosomes, IB-MECA 10 nM 10 min, MRS1191 1 μM 10 min before IB-MECA, Michaelis-Menten fit, mean (n=3) ±SEM.

As for “N6-(3-iodobenzyl)-N-methyl-5′carbamoyladenosine [IB-MECA]”, the “effect on GABA uptake” value in the test on GABA transport activity is reported as “no stimulation”. In the test with SERT (midbrain and hippocampal synaptosomes of A3AR+/+ mice, 10 nM, 10 min), the “increase in 5-HT transport” value is 40-50%. Moreover, the “stimulation of SERT activity in A3AR−/− mice” value in the test with SERT (midbrain and hippocampal synaptosomes of A3AR−/− mice, 10 nM, 10 min) is “failed to stimulate SERT activity”. Also, the “effect on SERT Vmax for 5-HT” value in the test with SERT (midbrain synaptosomes, 10 nM) is listed as “significantly increased the SERT Vmax for 5-HT”. Besides, the “5-HT transport at peak stimulation” value in the test with SERT (midbrain synaptosomes, 10 nM, 10 min pretreatment) was 130-150 % of control levels. Moreover, the “time at which stimulation of 5-HT uptake reached a maximum” value in the test on SERT (midbrain synaptosomes, 10 nM, post-treatment) was 10 to 20 min. Further, the “concentration at which stimulation of 5-HT transport peaked” value in the test on SERT (midbrain synaptosomes, 10 min pretreatment) was 10 nM. Moreover, in the test on SERT (setting [1]), the Michaelis constant (Km) stood at 0.8 µM and the Vmax is listed as 2544+/−281 fmol/mg protein/min. The “effect on 5-HT uptake at high concentration” value in the test on SERT (midbrain synaptosomes, exceeding 100 μM, data not shown) was “induced a decrease in 5-HT uptake”. Further, in the test with SERT (striatal synaptosomes, 10 min), the “SERT activity in striatal synaptosomes” value is “IB-MECA-insensitive SERT activity”. In addition, the “concentration window for stimulation of 5-HT transport” value in the test on SERT (synaptosomes, for 20 min) was 10 to 30 nM. Moreover, the “effect on DA uptake” value in the test with dopamine transporter is “no stimulation”.
As for `CCNC(=O)C1OC(n2cnc3c(N)ncnc32)C(O)C1O` (stereo not shown) [NECA, 5′-N-ethyl-carboxamidoadenosine], the “effect on SERT activity” value in the test on SERT (midbrain synaptosomes, 10 min at 37° C.) is “fails to stimulate SERT activity”. The “effect on 5-HT transport at high concentration” value in the test with SERT (midbrain synaptosomes, concentrations above 1 μM) is given as “inhibited 5-HT transport”.
Regarding `CNCCNS(=O)(=O)c1cccc2cnccc12` [H8, N-[2-(methylamino)ethy]-5-isoquinoline-sulfonamide], the “effect on IB-MECA (10 nM) stimulated 5-HT uptake” value in the test with SERT (midbrain synaptosomes) is given as “blocked IB-MECA regulation of SERT”.
Regarding `CCOC(=O)C1=C(C)NC(c2ccccc2)=C(C(=O)OCc2ccccc2)C1C#Cc1ccccc1` (racemic) [MRS1191, 3-ethyl-5-benzyl-2-methyl-phenylethynyl-6-phenyl-1,4(±)dihydropyridine-3,5-dicarboxylate], the “effect on IB-MECA (10 nM) stimulated 5-HT uptake” value in the test on SERT (midbrain synaptosomes) was “prevented the stimulatory actions of IB-MECA on 5-HT uptake”. Besides, the “effect alone on basal 5-HT transport” value in the test with SERT (synaptosomes, 0.01-100 μM, data not shown) is listed as “did not influence basal 5-HT transport”.
Regarding `C[C@H](Cc1ccccc1)Nc1ncnc2c1ncn2[C@@H]1O[C@H](CO)[C@@H](O)[C@H]1O` [R-PIA, (R)—N^6-phenylisopropyladenosine], in the test with SERT (midbrain synaptosomes, 1~1000 nM, 10 min at 37° C.), the “impact on 5-HT transport” value is on record as “No impact”.
